Reference: paper PMC6976569, “Structural basis of subtype-selective competitive antagonism for GluN2C/2D-containing NMDA receptors” (Nature Communications, 2020)
Values joined by “and” are separate entries in the source; they are usually repeats but may differ in a detail not shown here. Equal entries are not always repeated.

How the values were obtained:
[1] = Water solubility (statement); assay type: physicochemical; settings: authors' statement in peer review file
[2] = molecular target: T1, GluN1-4a/GluN2A-4m NMDAR (Ala414Arg, Lys738Met, Gly740Arg, Arg741Lys) (Rattus norvegicus, UniProt Q00959, A414R/G740R/K738M/R741K); experiment: TEVC electrophysiology on oocytes expressing GluN1-4a/GluN2A-4m mutant; assay type: cell-based; settings: Ki GluN2A-4m relative to Ki GluN2D (WT)
T1 construct: we incorporated the mutations, Ala414Arg, Lys738Met, Gly740Arg, and Arg741Lys, in the full-length GluN2A (GluN2A-4m); expressed in transfected cells; host or cells: Xenopus laevis oocytes injected with cRNA
From the text: (§1) Our previous structure of the GluN1–GluN2A LBD complexed to PPDA unambiguously mapped the antagonist-binding site at the cleft of the bilobe architecture of the GluN2 LBD (PDB: 4NF6). […] In this study, we focus on the comparison between the GluN2A and GluN2D subunits, since sequence and functional similarities between GluN2A and GluN2B and between GluN2C and GluN2D are high. Near the PPDA-binding pocket in the GluN2A LBD (Fig. 3a), the primary sequences across the GluN2A-D subunits are mostly identical except for four residues, GluN2A-Ala414, Lys738, Gly740, and Arg741, which are Arg, Met, Arg, and Lys residues in GluN2D, respectively (Fig. 3a; yellow residues and arrows in the sequence alignment). GluN2A-Ala414 is located in the D1-lobe, whereas GluN2A-Lys738, Gly740, and Arg741 are on Helix H in the D2-lobe proximal to the predicted binding site for the carboxyethyl group of UBP791. These residues are completely conserved among human, rat, and chicken, though GluN2A-Ala414 and -Lys738 are not conserved in X. laevis (frog) and Danio rerio (zebrafish) (Supplementary Fig. 1).
(§2) Plasmids (pSP or pCI_NEO) harboring rat GluN1 or GluN2 full-length subunits were linearized by restriction digestion and transcribed according to the manufacturer’s instructions (mMESSAGE mMachine SP6 or T7 kit, ThermoFisher Scientific). Recombinant rat GluN1-4a and GluN2 were expressed by co-injecting cRNA at a 1:2 (w/w) ratio into defolliculated X. laevis oocytes (amounts varied from 0.05–25 ng per oocyte). Two-electrode voltage-clamp recordings were performed 1–3 days after injection using agarose-tipped microelectrodes (0.4–1.2 MΩ) filled with 3 M KCl at a holding potential of −60 mV. The bath solution contained 5 mM HEPES, 100 mM NaCl, 0.3 mM BaCl2, 10 mM Tricine, at pH 7.4 (adjusted with KOH). […] For the statistical evaluation, we implemented pairwise F-tests to test variances, and then performed the Student t test with equal or unequal variances as determined previously, and accounted for multiple testing with the Bonferroni correction.

[3] = molecular target: T2, GluN1-4a/GluN2A-4m NMDAR (Ala414Arg, Lys738Met, Gly740Arg, Arg741Lys) (Rattus norvegicus, UniProt P35439+Q00959, A414R/G740R/K738M/R741K); experiment: as above; assay type: cell-based
T2 construct: we incorporated the mutations, Ala414Arg, Lys738Met, Gly740Arg, and Arg741Lys, in the full-length GluN2A (GluN2A-4m); expressed in transfected cells; host or cells: Xenopus laevis oocytes injected with cRNA
From the text: as §1, §2

[4] = molecular target: T3, GluN1-4a/GluN2A NMDARs (Rattus norvegicus, UniProt Q00959); experiment: TEVC electrophysiology on Xenopus laevis oocytes expressing GluN1-4a/GluN2A; assay type: cell-based; settings: for fold difference of Ki vs. 2D (GluN2A): Ki GluN2A relative to Ki GluN2D (WT)
T3 construct: expressed in transfected cells; host or cells: Xenopus laevis oocytes injected with cRNA
From the text: (§3) The chemical definition of UBP791 used in this study is a cis-racemic mixture of (2S,3R)- and (2R,3S)-isomers.
as §2

[5] = molecular target: T4, GluN1-4a/GluN2A NMDARs (Rattus norvegicus, UniProt P35439+Q00959); experiment: as above; assay type: cell-based; settings: for Ki: Cheng–Prusoff from IC50 and L-glutamate EC50, 100 μM glycine, 1 or 3 μM L-glutamate
T4 construct: expressed in transfected cells; host or cells: Xenopus laevis oocytes injected with cRNA
From the text: as §3, §2

[6] = molecular target: T5, GluN1-4a/GluN2D NMDARs (Rattus norvegicus, UniProt P35439+Q62645); experiment: TEVC electrophysiology on Xenopus laevis oocytes expressing GluN1-4a/GluN2D; assay type: cell-based; settings: for Ki: 100 μM glycine, 1 or 3 μM L-glutamate
T5 construct: expressed in transfected cells; host or cells: Xenopus laevis oocytes injected with cRNA
From the text: as §3, §2

[7] = molecular target: T6, GluN1-4a/GluN2D NMDARs (Rattus norvegicus, UniProt Q62645); experiment: as above; assay type: cell-based
T6 construct: expressed in transfected cells; host or cells: Xenopus laevis oocytes injected with cRNA
From the text: as §3, §2

[8] = molecular target: GluK2 (Homo sapiens, UniProt Q13002); experiment: Glutamate-stimulated Ca2+-influx fluorescence assay in HEK293 cells, GluK2; assay type: cell-based; settings: for IC50: HEK293 cells, glutamate-stimulated Ca2+-influx
Method: HEK293 cell lines stably expressing homomeric glutamate receptors (GluA1, GluK1 and GluK2) were obtained from Eli Lilly and grown in DMEM (ThermoFisher) supplemented with 10% v/v fetal bovine serum (Sigma), 2 mM Glutamax™ (Gibco), 100 U/mL penicillin, 100 µg streptomycin and 250 ng amphotericin B (Sigma) in 5% CO2 at 37 °C. Cells were passaged using TrypLE (Gibco) as required before confluency and periodically treated with selection antibiotics (GluK1, GluK2 hygromycin B, 200 µg/mL; GluA1 geneticin™, 200 µg/mL).
Calcium influx fluorescence assay
100k cells/well were seeded into a 96-well plate precoated with poly-L-lysine and incubated for 12-16 hours until fully confluent. The cell monolayer was washed twice with 100 µL Hanks Balanced Salt Solution supplemented with 5 mM CaCl2 and 20 mM HEPES (sHBSS), then incubated for 2-4 hours with 100 µL working solution of Ca6 dye (Molecular Devices) supplemented with a desensitization blocker (GluK1, GluK2 0.25 mg/mL concanavalin A, Sigma; GluA1 100 µM cyclothiazide, Sigma). The time resolved fluorescence was recorded in a Flexstation 3 instrument (Molecular Devices). For each individual reading, the initial fluorescence of the well was measured for 20 seconds, after which the desired concentration of […]
response is measured as the peak change in fluorescence upon addition of agonist. The viability of the cells was confirmed by determination of the concentration-response curve to the L-glutamate agonist and a standard antagonist for each plate. Readings of antagonists used the […]
Fluorescence traces were performed in […]
triplicate on each plate and Ki values were determined on a plate-by-plate basis. Separate experiments (n) were performed on different passages of cells. […]

[9] = molecular target: T7, GluN1-4a/GluN2C NMDARs (Rattus norvegicus, UniProt Q00961); experiment: TEVC electrophysiology on Xenopus laevis oocytes expressing GluN1-4a/GluN2C; assay type: cell-based; settings: Ki GluN2C relative to Ki GluN2D (WT)
T7 construct: expressed in transfected cells; host or cells: Xenopus laevis oocytes injected with cRNA
From the text: as §3, §2

[10] = inhibition dose-response, 100 μM glycine, 1 or 3 μM L-glutamate
[11] = normalized response at 30 µM compound
[12] = normalized response at 100 µM compound

Sequence of GluK2 (Q13002 32-908): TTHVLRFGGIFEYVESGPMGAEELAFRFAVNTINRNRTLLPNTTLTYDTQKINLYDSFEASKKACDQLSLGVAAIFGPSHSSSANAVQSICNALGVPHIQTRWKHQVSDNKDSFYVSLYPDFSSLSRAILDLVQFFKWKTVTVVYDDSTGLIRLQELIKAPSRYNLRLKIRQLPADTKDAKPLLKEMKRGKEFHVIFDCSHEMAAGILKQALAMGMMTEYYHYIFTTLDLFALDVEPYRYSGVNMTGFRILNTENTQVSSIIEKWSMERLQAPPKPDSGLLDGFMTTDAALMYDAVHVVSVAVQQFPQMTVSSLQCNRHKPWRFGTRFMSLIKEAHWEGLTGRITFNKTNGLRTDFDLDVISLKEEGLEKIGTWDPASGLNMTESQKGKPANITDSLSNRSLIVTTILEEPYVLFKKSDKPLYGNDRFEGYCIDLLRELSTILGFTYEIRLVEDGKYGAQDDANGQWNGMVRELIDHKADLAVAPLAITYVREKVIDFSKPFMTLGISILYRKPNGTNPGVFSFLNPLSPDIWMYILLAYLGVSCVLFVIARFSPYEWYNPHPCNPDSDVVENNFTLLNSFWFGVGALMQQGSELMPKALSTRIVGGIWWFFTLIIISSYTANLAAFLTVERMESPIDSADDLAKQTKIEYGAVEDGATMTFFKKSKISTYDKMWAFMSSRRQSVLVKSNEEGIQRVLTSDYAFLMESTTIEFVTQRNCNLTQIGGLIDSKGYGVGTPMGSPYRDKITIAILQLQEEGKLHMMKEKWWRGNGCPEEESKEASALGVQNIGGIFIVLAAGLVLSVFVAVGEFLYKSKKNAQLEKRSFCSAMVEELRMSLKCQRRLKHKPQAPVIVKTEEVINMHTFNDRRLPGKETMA
T3 sequence (Q00959 23-1464, other chains not shown): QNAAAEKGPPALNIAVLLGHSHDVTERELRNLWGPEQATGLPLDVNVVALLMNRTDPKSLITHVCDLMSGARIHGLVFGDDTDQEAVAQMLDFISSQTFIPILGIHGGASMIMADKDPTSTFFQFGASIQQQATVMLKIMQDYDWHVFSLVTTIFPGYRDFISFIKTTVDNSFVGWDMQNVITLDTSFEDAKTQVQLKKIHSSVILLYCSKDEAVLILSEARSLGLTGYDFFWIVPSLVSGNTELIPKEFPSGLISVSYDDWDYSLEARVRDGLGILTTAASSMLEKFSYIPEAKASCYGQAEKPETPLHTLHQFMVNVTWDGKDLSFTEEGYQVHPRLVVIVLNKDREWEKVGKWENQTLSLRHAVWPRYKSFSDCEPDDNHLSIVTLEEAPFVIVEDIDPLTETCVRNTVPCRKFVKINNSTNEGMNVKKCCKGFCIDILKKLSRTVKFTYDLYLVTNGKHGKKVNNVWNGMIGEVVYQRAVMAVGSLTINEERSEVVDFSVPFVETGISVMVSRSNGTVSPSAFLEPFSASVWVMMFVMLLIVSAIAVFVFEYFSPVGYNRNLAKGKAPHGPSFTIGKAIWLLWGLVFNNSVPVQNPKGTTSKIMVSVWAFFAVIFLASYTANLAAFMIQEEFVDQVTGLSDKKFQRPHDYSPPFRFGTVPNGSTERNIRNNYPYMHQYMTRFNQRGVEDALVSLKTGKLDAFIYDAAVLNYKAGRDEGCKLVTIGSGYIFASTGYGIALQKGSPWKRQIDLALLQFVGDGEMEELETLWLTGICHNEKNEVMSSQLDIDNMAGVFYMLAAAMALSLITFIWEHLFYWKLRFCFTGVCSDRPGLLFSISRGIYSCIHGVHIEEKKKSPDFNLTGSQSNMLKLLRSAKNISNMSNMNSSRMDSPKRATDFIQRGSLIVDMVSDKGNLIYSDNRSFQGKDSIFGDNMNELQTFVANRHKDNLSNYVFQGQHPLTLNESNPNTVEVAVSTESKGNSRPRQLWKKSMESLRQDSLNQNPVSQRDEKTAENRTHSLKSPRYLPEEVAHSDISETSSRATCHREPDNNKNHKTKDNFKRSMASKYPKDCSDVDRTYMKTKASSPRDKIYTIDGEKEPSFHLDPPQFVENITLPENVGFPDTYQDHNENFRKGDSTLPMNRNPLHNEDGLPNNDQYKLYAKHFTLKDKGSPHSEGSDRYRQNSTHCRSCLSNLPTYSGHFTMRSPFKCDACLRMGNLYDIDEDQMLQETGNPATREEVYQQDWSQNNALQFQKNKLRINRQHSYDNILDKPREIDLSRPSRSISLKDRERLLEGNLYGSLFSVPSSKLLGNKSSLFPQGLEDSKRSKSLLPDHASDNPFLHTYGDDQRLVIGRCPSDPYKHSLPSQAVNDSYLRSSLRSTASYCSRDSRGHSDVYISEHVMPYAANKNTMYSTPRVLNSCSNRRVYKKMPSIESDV
T4 sequence (Q00959 23-1464, other chains not shown): as above
T5 sequence (Q62645 28-1323, other chains not shown): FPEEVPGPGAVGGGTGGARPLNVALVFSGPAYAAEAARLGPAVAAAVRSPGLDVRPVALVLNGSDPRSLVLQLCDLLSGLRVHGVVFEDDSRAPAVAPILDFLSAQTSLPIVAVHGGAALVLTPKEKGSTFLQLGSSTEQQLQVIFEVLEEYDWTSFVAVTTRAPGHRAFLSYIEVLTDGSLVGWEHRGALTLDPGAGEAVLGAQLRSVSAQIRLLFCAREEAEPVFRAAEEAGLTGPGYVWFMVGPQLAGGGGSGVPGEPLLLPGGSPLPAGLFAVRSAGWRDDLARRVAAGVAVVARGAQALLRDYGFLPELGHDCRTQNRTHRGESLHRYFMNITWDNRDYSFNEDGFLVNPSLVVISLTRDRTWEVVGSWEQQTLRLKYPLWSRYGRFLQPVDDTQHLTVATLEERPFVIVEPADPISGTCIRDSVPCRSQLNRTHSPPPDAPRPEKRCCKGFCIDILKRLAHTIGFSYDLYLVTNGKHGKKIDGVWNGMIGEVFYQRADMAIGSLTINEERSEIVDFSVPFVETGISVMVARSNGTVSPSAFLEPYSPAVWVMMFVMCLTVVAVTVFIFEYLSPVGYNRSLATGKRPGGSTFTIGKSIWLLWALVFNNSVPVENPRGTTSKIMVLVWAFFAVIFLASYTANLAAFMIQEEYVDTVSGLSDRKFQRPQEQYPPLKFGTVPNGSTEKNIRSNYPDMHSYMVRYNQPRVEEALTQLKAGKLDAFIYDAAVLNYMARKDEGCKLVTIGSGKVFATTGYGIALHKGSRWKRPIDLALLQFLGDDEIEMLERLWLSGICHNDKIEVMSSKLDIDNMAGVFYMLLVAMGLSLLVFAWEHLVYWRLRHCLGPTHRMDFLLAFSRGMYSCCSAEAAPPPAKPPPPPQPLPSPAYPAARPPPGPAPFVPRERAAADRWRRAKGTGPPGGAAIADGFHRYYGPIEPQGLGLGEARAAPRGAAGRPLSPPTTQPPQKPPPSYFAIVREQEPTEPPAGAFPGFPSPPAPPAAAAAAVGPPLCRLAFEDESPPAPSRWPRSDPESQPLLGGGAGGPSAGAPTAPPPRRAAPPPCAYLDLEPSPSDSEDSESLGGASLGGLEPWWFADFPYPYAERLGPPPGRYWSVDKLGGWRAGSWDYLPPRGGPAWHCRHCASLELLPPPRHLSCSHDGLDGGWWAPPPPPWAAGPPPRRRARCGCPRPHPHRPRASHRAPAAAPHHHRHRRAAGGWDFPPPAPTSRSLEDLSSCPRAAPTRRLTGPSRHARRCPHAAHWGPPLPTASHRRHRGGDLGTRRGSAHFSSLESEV
T6 sequence (Q62645 28-1323, other chains not shown): as above

SMILES | water solubility relative to PPDA [1] | fold difference of Ki vs. 2D (GluN2A-4m) [2] | Ki [3] | fold difference of Ki vs. 2D (GluN2A) [4] | Hill coefficient (nH) [4, 10] | GluN2C/2D-selectivity over GluN2A ([4]; ratio of Ki values) | IC50 [5] | Ki [5] | IC50 [6] | Ki ([6]; Cheng–Prusoff from IC50 and L-glutamate EC50) | Ki ([6]; Cheng–Prusoff) | Hill coefficient (nH) [7, 10] | IC50 [8] | Mean Response [8, 11] | Mean Response [8, 12] | selectivity for GluN2C over GluN2A ([4]; ratio of Ki values) | fold difference of Ki vs. 2D (GluN2C) [9] | fold higher affinity on GluN2D compared to UBP145 and UBP161 ([7]; peer review file, authors' response)
O=C(O)CCc1ccc2c(ccc3cc(C(=O)N4CCN[C@@H](C(=O)O)[C@H]4C(=O)O)ccc32)c1 (relative stereo) [UBP791, (2S*,3R*)-1-(7-(2-carboxyethyl)phenanthrene-2-carbonyl)piperazine-2,3-dicarboxylic acid] | more water soluble than PPDA | ~ 8 fold | 710 ± 140 nM | ~ 47 fold | 1.19 ± 0.07 | 47 fold | 6310 ± 400 nM | 4070 nM and ~4000 nM | 560 ± 10 nM | 90 ± 20 nM | 80 to 90 nM | 1.40 ± 0.02 | > 100000 nM | 96.1% | 97.8% | – | – | –
O=C(O)C=Cc1ccc2c(ccc3cc(C(=O)N4CCN[C@@H](C(=O)O)[C@H]4C(=O)O)ccc32)c1 (relative stereo) [UBP1700, (2S*,3R*)-1-(7-(2-carboxyvinyl)phenanthrene-2-carbonyl)piperazine-2,3-dicarboxylic acid] | more water soluble than PPDA | ~ 7 fold | 50 nM | ~ 64 fold | – | – | – | 430 ± 40 nM | – | – | 7 nM and 7 to 9 nM | – | > 100000 nM | 76.5% | 90.4% | 50 fold | ~ 1.3 fold | > 140 fold
